Experimental data taken from patent US20040234580A1, “Animal feeds including actives and methods of using the same” (priority 2001, published 2004).

Assays:
[1] = Ivermectin content of dog blood after ad libitum feeding of ivermectin-containing dog food (HPLC); format: in vivo; details: female mixed breed dog about 10 kg; Example 2 feed (approx. 1121.1 μg ivermectin/kg db) ad libitum; blood drawn four hours after eating, day 7 and seven days later
Procedure: The dog food from this run was fed ad libitum to an intact female mixed breed dog weighing about 10 kg. On day 7, blood was drawn from the dog four hours after eating and stored in an anti-coagulant tube with calcium EDTA in a refrigerator. Seven days later, the same dog was again fed the ivermectin-containing feed ad libitum and blood was collected four hours post-feeding. This sample was also refrigerated in the same fashion as the first sample.
The blood samples were then analyzed to determine the content of ivermectin therein, using HPLC. The procedure used was described in Diclidnson, Journal of Chromatography, 58:250-257 (1990). In this procedure, 0.5 ml of each blood sample was purified using solid phase extraction (SPE) cartridges and dissolved in a small volume of mobile phase for injection onto the HPLC column. The method has a limit of detection of about 2 ng/ml and uses an internal standard. After preparation of the internal standard, a standard curve is constructed using ivermectin-spiked blood samples. A known 1% ivermectin sample was used as the primary standard.
The blood samples from the dog were then analyzed for ivermectin content with HPLC peak heights corrected using the internal standard.

[2] = Storage stability of ivermectin in extruded dog food (HPLC content, frozen versus ambient); format: physicochemical
Procedure: Following this treatment, the product was dried to a moisture level of less than 10% by weight. Three samples from the dryer were subsequently frozen and another […] placed in a plastic bag and stored at room temperature, for a period in excess of six months.
The products resulting from this test were analyzed to determine the content of ivermectin in the samples. In this analysis, each feed sample was ground in a Retsch mill at low speed using a 2 mm grating screen, so that the ground material would pass through a #10 mesh screen. A total of six samples, three frozen and three stored at room temperature, were processed. In each case, three 37.5 g of a sample was placed in a 250 ml bottle and 100 ml of methanol was added. The bottle was capped, the sample was sonicated for 20 minutes and shaken for 1 hour. 40 ml of the extract was added to a centrifuge tube and centrifuged for 5 minutes at 2000 rpm. 20 ml of the supernatant solution was then passed through a alumina column. The first five ml was rejected and the remainder of the liquid through the column was collected as a purified sample. 2 ml of the purified sample was mixed with a 5 ml mixture of acetonitrile:water (1:1), and a solid phase extraction (SPE) was performed in accordance with the procedure described in Doherty et al., Analytical Chemists International, 81:869(4) (1998). […]

In the case of Ivermectin, the “ivermectin in dog blood samples” value [1] is reported as 5 to 8 ng/mL, the “average ivermectin content of the three frozen and the ambient-stored samples” value ([2]; co-extruded pillow dog food of Example 1, stored frozen or at room temperature in excess of six months, expected content 0.42 μg/kg, HPLC) is reported as 0.43 µg/kg and the “effect of storage conditions (frozen versus ambient) upon ivermectin potency” value ([2]; dog food of Example 1, frozen versus room temperature in excess of six months) is reported as “little effect”.
